The values below come from USRE44971E1, “Method for selection of transformed cells” (priority 2006, dated 2014).

Assay [1] has as its system non-transgenic soybean plants. The experiment in a line: Greenhouse post-V3 spray of auxin-like herbicides, visual injury, non-transgenic line. The class given is in vivo. As to the method:
(§1) An analysis was carried out to determine whether soybean plants having DMO-encoding polynucleotide could deactivate other auxin-like herbicides in addition to dicamba. This was carried out by applying various concentrations of commercially available formulations of other auxin-like herbicides such as 2,4-D (Helena, Collierville, Tenn.), MCPA (Agriliance, St. Paul, Minn.), triclopyr (GARLON 3A; Dow Elanco, Indianapolis, Ind.), clopyralid (STINGER; Dow Elanco, Indianapolis, Ind.), picloram (TORDON 22K; Dow Elanco, Indianapolis, Ind.), or Banvel or Clarity (BASF, Raleigh, N.C.) to DMO containing plant tissues or plants.
(§2) Transgenic soybean plants were obtained by Agrobacterium-mediated transformation of soybean explants with a DMO-encoding polynucleotide as described above for the events designated Events 1-4. A non-transgenic line was used as a control. Non-transgenic and transgenic soybean seeds were planted into 3,5-inch square plastic pots containing Redi-earth™ (Scotts-Sierra Horticultural Products Co., Marysville, Ohio). The pots were placed on capillary matting in 35 inch×60 inch fiberglass watering trays for overhead and/or sub-irrigation for the duration of the test period so as to maintain optimum soil moisture for plant growth. The pots were fertilized with Osmocote (14-14-14 slow release; Scotts-Sierra Horticultural Products Co., Marysville, Ohio) at the rate of 100 gm/cu.ft. to sustain plant growth for the duration of greenhouse trials. The plants were grown in greenhouses at 27°/21° C. day/night temperature, with relative humidity between 25%-75% to simulate warm season growing conditions of late spring. A 14 h minimum photoperiod was provided with supplemental light at about 600 μE as needed.
(§3) All herbicide applications were made with the track sprayer using a Teejet 9501E flat fan nozzle (Spraying Systems Co, Wheaton, Ill.) with air pressure set at a minimum of 24 psi (165 kpa). The spray nozzle was kept at a height of about 16 inches above the top of plant material for spraying. The spray volume was 10 gallons per acre or 93 liters per hectare. Applications were made when plants had reached V-3 stage.
(§4) All treated plants in greenhouse trials were visually assessed at about 4, 14, 18, and 21 days after treatment (DAT) for injury on a scale of 0 to 100 percent relative to untreated control plants, with zero representing “no” injury and 100% representing “complete” injury or death. Data were collected using a palm top computer and analyzed using standard statistical methods.

Assay [2] has as its system transgenic soybean plants with DMO-encoding polynucleotide, Event 1. The experiment in a line: Greenhouse post-V3 spray of auxin-like herbicides, visual injury, transgenic Event 1. The class given is in vivo. The procedure: as §1, §2, §3, §4
The subject of assay [3] is transgenic soybean plants with DMO-encoding polynucleotide, Event 2. Briefly: Greenhouse post-V3 spray of auxin-like herbicides, visual injury, transgenic Event 2. The class given is in vivo. As to the method: as §1, §2, §3, §4
The test system of assay [4] is transgenic soybean plants with DMO-encoding polynucleotide, Event 3. The experiment in a line: Greenhouse post-V3 spray of auxin-like herbicides, visual injury, transgenic Event 3. In kind it is in vivo. The procedure: as §1, §2, §3, §4
The subject of assay [5] is transgenic soybean plants with DMO-encoding polynucleotide, Event 4. Briefly: Greenhouse post-V3 spray of auxin-like herbicides, visual injury, transgenic Event 4. The class given is in vivo. The procedure: as §1, §2, §3, §4
The test system of assay [6] is soybean explants inoculated with Agrobacterium harboring pMON73691 (DMO and GFP genes). Briefly: Selection of pMON73691-inoculated soybean explants with 2,4-D or dicamba in liquid medium, GFP+ buds. In kind it is cell-based. The following applies: for # Explants w/GFP + buds/young shoots at 48DAI: 375 explants inoculated, pMON73691. The procedure:
Freshly isolated soybean explants (mature embryo axes without cotyledons) were inoculated with Agrobacterium strain ABI harboring pMON73691 (containing DMO and GFP genes). After 3-d co-culture with Agrobacterium at 23° C. and a photoperiod of 16-h light and 8-h dark, the explants were cultured in liquid delay medium which contained modified woody plant medium supplemented with 5 mg/l BAP, 200 mg/l carbenicillin, 200 mg/l cefotaxime and 100 mg/l ticarcillin. The explants were in the delay medium for 4 days. They were then transferred to liquid selection medium in PLANTCONs. The selection medium was the same as the delay medium except of addition of various levels of 2,4-D (0.01, 0.1, 1.0 or 2.0 mg/L) or 0.01 mg/L dicamba as shown in Table 9 below. Each PLANTCON contained 60 ml of the selection medium and one piece of foam sponge with 5 slits. Twenty-five explants were evenly inserted into the slits. The cultures were maintained at 28° C. and a photoperiod of 16-h light and 8-h dark, and were examined periodically under a […] equipped for detecting GFP expressing tissues.

The subject of assay [7] is transgenic soybean plants having DMO-encoding polynucleotide. The experiment in a line: Greenhouse injury trial, overall statements for transgenic soybean. In kind it is in vivo. As to conditions: for tolerance of transgenic soybean relative to the non-transgenic line: greenhouse trial, post-V3 application; for assessment of application rate: 280 g ae/ha, transgenic soybean. The procedure: as §1, §2, §3, §4

For `O=C(O)COc1ccc(Cl)cc1Cl` [2,4-D, (2,4-dichlorophenoxy)acetic acid], the “% injury relative to un-treated controls” value in assay [1] (280 g ae/ha, 21 DAT) is 86.8%; in assay [1] (561 g ae/ha, 21 DAT), 100.0%; in assay [1] (1120 g ae/ha, 21 DAT), 100.0%; in assay [2] (280 g ae/ha, 21 DAT), 58.3%; in assay [2] (561 g ae/ha, 21 DAT) it was 75.0%; in assay [2] (1120 g ae/ha, 21 DAT) it was 100.0%. The “% injury relative to un-treated controls” value is recorded as 64.2% in assay [3] (280 g ae/ha, 21 DAT); 94.7% in assay [3] (561 g ae/ha, 21 DAT); 100.0% in assay [3] (1120 g ae/ha, 21 DAT); 40.0% in assay [4] (280 g ae/ha, 21 DAT); 85.0% in assay [4] (561 g ae/ha, 21 DAT); 100.0% in assay [4] (1120 g ae/ha, 21 DAT). For the same compound, the “% injury relative to un-treated controls” value in assay [5] (280 g ae/ha, 21 DAT) is reported as 45.8%; in assay [5] (561 g ae/ha, 21 DAT), 84.2%; in assay [5] (1120 g ae/ha, 21 DAT), 100.0%. Besides, the explant response observed result in assay [6] (0.01 or 0.1 mg/L in selection medium) was “extensive shoot growth”; in assay [6] (1 or 2 mg/L in selection medium) it was “Extensive callus development”. Further, the “# Explants w/GFP + buds/young shoots at 48DAI” value in assay [6] (selective agent 0.01 mg/L) worked out at 33; in assay [6] (selective agent 0.1 mg/L), 19; in assay [6] (selective agent 1 mg/L), 4; in assay [6] (selective agent 2 mg/L), 0. Also, the “tolerance of transgenic soybean relative to the non-transgenic line” value in assay [7] is “tolerance”.

Consider `O=C(O)c1nc(Cl)ccc1Cl` [Clopyralid, 3,6-dichloro-2-pyridinecarboxylic acid], for which the “% injury relative to un-treated controls” value in assay [1] (280 g ae/ha, 14 DAT) turned out to be 99.3%; in assay [1] (561 g ae/ha, 14 DAT), 100.0%; in assay [1] (1120 g ae/ha, 14 DAT), 100.0%; in assay [2] (280 g ae/ha, 14 DAT), 99.2%; in assay [2] (561 g ae/ha, 14 DAT) it was 100.0%; in assay [2] (1120 g ae/ha, 14 DAT), 100.0%. The “% injury relative to un-treated controls” value worked out at 98.2% in assay [3] (280 g ae/ha, 14 DAT); 99.7% in assay [3] (561 g ae/ha, 14 DAT); 100.0% in assay [3] (1120 g ae/ha, 14 DAT); 99.3% in assay [4] (280 g ae/ha, 14 DAT); 100.0% in assay [4] (561 g ae/ha, 14 DAT); 100.0% in assay [4] (1120 g ae/ha, 14 DAT). The “% injury relative to un-treated controls” value in assay [5] (280 g ae/ha, 14 DAT) was found to be 99.7%; in assay [5] (561 g ae/ha, 14 DAT), 100.0%; in assay [5] (1120 g ae/ha, 14 DAT), 100.0%. The “assessment of application rate” value in assay [7] is given as “too stringent”.

As to `Cc1cc(Cl)ccc1OCC(=O)O` [MCPA, (4-chloro-2-methylphenoxy)acetic acid], the “% injury relative to un-treated controls” value in assay [1] (280 g ae/ha, 21 DAT) is reported as 93.0%; in assay [1] (561 g ae/ha, 21 DAT) it was 98.3%; in assay [1] (1120 g ae/ha, 21 DAT), 100.0%; in assay [2] (280 g ae/ha, 21 DAT), 72.5%; in assay [2] (561 g ae/ha, 21 DAT), 99.3%; in assay [2] (1120 g ae/ha, 21 DAT) it was 100.0%. The “% injury relative to un-treated controls” value in assay [3] (280 g ae/ha, 21 DAT) came to 55.0%; in assay [3] (561 g ae/ha, 21 DAT), 95.0%; in assay [3] (1120 g ae/ha, 21 DAT), 99.7%; in assay [4] (280 g ae/ha, 21 DAT) it was 55.0%; in assay [4] (561 g ae/ha, 21 DAT) it was 95.8%; in assay [4] (1120 g ae/ha, 21 DAT), 100.0%. For the same compound, the “% injury relative to un-treated controls” value in assay [5] (280 g ae/ha, 21 DAT) turned out to be 88.3%; in assay [5] (561 g ae/ha, 21 DAT), 98.8%; in assay [5] (1120 g ae/ha, 21 DAT) it was 100.0%. Besides, the “tolerance of transgenic soybean relative to the non-transgenic line” value in assay [7] was “tolerance”.

`Nc1c(Cl)c(Cl)nc(C(=O)O)c1Cl` [Picloram, 4-amino-3,5,6-trichloro-2-pyridinecarboxylic acid]: the “% injury relative to un-treated controls” value in assay [1] (280 g ae/ha, 14 DAT) was found to be 99.3%; in assay [1] (561 g ae/ha, 14 DAT) it was 100.0%; in assay [1] (1120 g ae/ha, 14 DAT) it was 100.0%; in assay [2] (280 g ae/ha, 14 DAT), 99.7%; in assay [2] (561 g ae/ha, 14 DAT), 100.0%; in assay [2] (1120 g ae/ha, 14 DAT) it was 100.0%. For the same compound, the “% injury relative to un-treated controls” value in assay [3] (280 g ae/ha, 14 DAT) turned out to be 99.3%; in assay [3] (561 g ae/ha, 14 DAT) it was 100.0%; in assay [3] (1120 g ae/ha, 14 DAT), 100.0%; in assay [4] (280 g ae/ha, 14 DAT) it was 99.3%; in assay [4] (561 g ae/ha, 14 DAT), 99.7%; in assay [4] (1120 g ae/ha, 14 DAT), 100.0%. For the same compound, the “% injury relative to un-treated controls” value worked out at 99.3% in assay [5] (280 g ae/ha, 14 DAT); 100.0% in assay [5] (561 g ae/ha, 14 DAT); 100.0% in assay [5] (1120 g ae/ha, 14 DAT). The “assessment of application rate” value in assay [7] was “too stringent”.

“(2,4,5-trichlorophenoxy)acetic acid [Triclopyr]”: the “% injury relative to un-treated controls” value in assay [1] (280 g ae/ha, 14 DAT) is recorded as 86.7%; in assay [1] (561 g ae/ha, 14 DAT), 97.3%; in assay [1] (1120 g ae/ha, 14 DAT) it was 98.7%; in assay [2] (280 g ae/ha, 14 DAT) it was 88.3%; in assay [2] (561 g ae/ha, 14 DAT) it was 95.7%; in assay [2] (1120 g ae/ha, 14 DAT), 99.3%. For the same compound, the “% injury relative to un-treated controls” value is 86.7% in assay [3] (280 g ae/ha, 14 DAT); 98.7% in assay [3] (561 g ae/ha, 14 DAT); 99.3% in assay [3] (1120 g ae/ha, 14 DAT); 86.7% in assay [4] (280 g ae/ha, 14 DAT); 94.0% in assay [4] (561 g ae/ha, 14 DAT); 96.3% in assay [4] (1120 g ae/ha, 14 DAT). Also, the “% injury relative to un-treated controls” value came out at 90.8% in assay [5] (280 g ae/ha, 14 DAT); 98.0% in assay [5] (561 g ae/ha, 14 DAT); 99.2% in assay [5] (1120 g ae/ha, 14 DAT). The “assessment of application rate” value in assay [7] is listed as “too stringent”.
